Legend:
human 17βHSD type 1 = target: T1, human 17βHSD type 1 (Homo sapiens, UniProt P14061); assay: Inhibition of recombinant 17βHSD type 1, tritium-labeled substrate conversion; assay type: biochemical; details: for inhibition at 0.1 µM: 0.1 μmol · l^−1 test substance; for inhibition at 0.1 µM / inhibition at 1 µM: read-out: % of inhibition of human 17βHSD1; for inhibition at 1 µM: 1 μmol · l^−1 test substance; for IC50: read-out: 17βHSD1 IC50
T1 construct: made in house; expressing system suspended in buffer, not purified
T1 sequence (P14061 1-328): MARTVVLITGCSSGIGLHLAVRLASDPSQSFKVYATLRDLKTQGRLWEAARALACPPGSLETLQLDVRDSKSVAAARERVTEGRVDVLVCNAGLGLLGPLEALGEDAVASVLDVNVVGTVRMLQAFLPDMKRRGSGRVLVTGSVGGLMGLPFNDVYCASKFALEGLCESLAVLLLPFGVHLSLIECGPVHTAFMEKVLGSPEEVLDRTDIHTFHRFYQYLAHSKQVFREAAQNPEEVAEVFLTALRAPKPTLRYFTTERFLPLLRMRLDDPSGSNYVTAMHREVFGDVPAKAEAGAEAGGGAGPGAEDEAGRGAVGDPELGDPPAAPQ
Procedure: (§1) The inhibitory activity of the test substances was determined for individual isoenzymes from the 17βHSD family, specifically these were the types 1, 2, 3, 4, 5 and 7. Escherichia coli and mammalian cells expression systems were used for recombinant expression of individual isozymes of human 17βHSD. Only in the case of 17HSD5 the enzyme was partially purified and supernatant obtained by centrifugation of the bacterial lysate was used for testing. Systems expressing specific 17βHSD type were suspended in a reaction buffer and incubated with tritium-labeled substrates and respective cofactors at 37° C. in two parallel tests: the control arrangement (DMSO without the inhibitor) and the test arrangement (DMSO with the inhibitor). DMSO serves as a negative control in this case. After 20-30% of the substrate was converted by the activity of the enzyme to the product in a control test, both tests were terminated. Substrate and product from the test arrangement were isolated by SPE (solid phase extraction), and then separated by reverse phase HPLC. Substrate conversion was determined by integration of the signals of the substrate and product, and was expressed in %. For the purposes of the subsequent calculation of enzyme inhibition, the conversion of the control test was designated as 0% inhibition. All tests were performed in triplicates. IC50 values were subsequently determined by a standard method using the “One Ligand Binding” model of SigmaPlot kinetics module (Schustera et. al. J. Ster. Biochem. Mol. Biol. 2011, 125, 148; Möller et. al. Biioorg. Med. Chem. Lett. 2009, 19, 6740; Möller et. al. PLoS One, 2010, 5, 6, e10969).

human 17βHSD type 5 = target: T2, human 17βHSD type 5 (Homo sapiens, UniProt P42330); assay: Inhibition of recombinant 17βHSD type 5, tritium-labeled substrate conversion; assay type: biochemical; details: 1 μmol · l^−1 test substance
T2 construct: made in house; host or cells: bacteria (Escherichia coli); supernatant of the lysate
T2 sequence (P42330 1-323): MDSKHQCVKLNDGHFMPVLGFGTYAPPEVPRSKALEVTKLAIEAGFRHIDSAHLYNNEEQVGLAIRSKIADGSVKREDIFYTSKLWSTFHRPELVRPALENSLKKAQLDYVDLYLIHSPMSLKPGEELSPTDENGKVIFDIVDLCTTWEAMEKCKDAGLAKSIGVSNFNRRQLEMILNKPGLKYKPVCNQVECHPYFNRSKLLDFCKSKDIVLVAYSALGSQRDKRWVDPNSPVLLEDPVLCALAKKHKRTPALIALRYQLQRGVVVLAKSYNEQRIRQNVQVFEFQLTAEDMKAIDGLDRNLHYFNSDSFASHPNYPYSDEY
Procedure: as §1

[1] = target: T3, estrogen receptor α (ERα) (Homo sapiens, UniProt P03372); assay: ERα luciferase reporter assay in U2OS cells; assay type: cell-based; details: for ER antagonism in words: testing range 10 μmol·l^−1 to 1 nmol·l^−1
T3 construct: expressed in transfected cells
T3 sequence (P03372 1-595): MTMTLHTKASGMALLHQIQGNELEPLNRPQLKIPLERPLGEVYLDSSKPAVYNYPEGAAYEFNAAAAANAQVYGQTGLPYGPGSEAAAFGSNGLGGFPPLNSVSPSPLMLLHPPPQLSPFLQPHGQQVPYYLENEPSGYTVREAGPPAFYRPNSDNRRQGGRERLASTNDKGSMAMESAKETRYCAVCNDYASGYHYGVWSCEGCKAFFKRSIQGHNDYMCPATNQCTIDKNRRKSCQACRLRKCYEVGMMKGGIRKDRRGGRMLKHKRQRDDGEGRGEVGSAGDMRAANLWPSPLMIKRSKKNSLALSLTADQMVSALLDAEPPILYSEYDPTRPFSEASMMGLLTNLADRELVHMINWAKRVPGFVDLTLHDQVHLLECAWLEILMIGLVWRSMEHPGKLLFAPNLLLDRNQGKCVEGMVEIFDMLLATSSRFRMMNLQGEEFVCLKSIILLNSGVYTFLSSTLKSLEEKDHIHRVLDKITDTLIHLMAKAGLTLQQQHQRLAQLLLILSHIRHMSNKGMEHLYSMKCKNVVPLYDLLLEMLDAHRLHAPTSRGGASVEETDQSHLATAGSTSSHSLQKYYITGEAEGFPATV

human 17βHSD1 [2] = target: T4, human 17βHSD1 (Homo sapiens, UniProt P14061); assay: 17βHSD inhibition in CHO cells transfected with human 17βHSD1, E1 in supernatant; assay type: cell-based; parameters: expressed in transfected cells; details: 10 μmol·l^−1
T4 sequence (P14061 1-328): T1 sequence (P14061 1-328)
Procedure: (§2) For this experiment, non-cytotoxic concentrations of estrone derivative (10 μmol·l^−1) were used. E1 levels were determined by an immuno-enzymatic assay.

HCT116p53-/- = assay: MTT cytotoxicity assay, HCT116p53-/-; assay type: cell-based; details: Homo sapiens
Text: (§3) Compounds 5, 6, 7, 9, 14 and 15 were used for evaluation of antitumor activity. MTT cytotoxicity assay was used in vitro on cell lines derived from normal tissues and from tumors. Specifically, these were the K562 line (human myeloid leukemia), K562-Tax (human myeloid leukemia resistant to taxol and overexpressing PgP protein for multidrug resistance), CEM (T-lymphoblastic leukemia), CEM-DNR bulk (T-lymphoblastic leukemia resistant doxorubicin, lacking the expression of the target gene for inhibitors of topoisomerase II alpha), A549 line (human lung adenocarcinoma), HCT116p53 wt (human colon cancer), HCT116p53−/− (human colon cancer, mutant p53), U2OS line of human osteosarcoma and two fibroblast lines MRC5 and BJ as examples of non-tumor cells. Expression characteristics, profiles of susceptibility to classical antitumor drugs and methodology of the MTT cytotoxicity assay were repeatedly published (e.g. Noskova et al. Neoplasma 2002, 49, 418; S̆arek et. al. J. Med. Chem. 2003, 46, 25, 5402).

K562 = assay: MTT cytotoxicity assay, K562; assay type: cell-based; details: Homo sapiens
Text: as §3

CEM-DNR-bulk = assay: MTT cytotoxicity assay, CEM-DNR-bulk; assay type: cell-based
Text: as §3

U2OS = assay: MTT cytotoxicity assay, U2OS; assay type: cell-based; details: Homo sapiens
Text: as §3

BJ = assay: MTT cytotoxicity assay, BJ fibroblasts; assay type: cell-based; details: Homo sapiens, non-tumor fibroblasts
Text: as §3

CEM = assay: MTT cytotoxicity assay, CEM; assay type: cell-based; details: Homo sapiens, CCRF-CEM
Text: as §3

K562-Tax = assay: MTT cytotoxicity assay, K562-Tax; assay type: cell-based; details: Homo sapiens
Text: as §3

HCT116p53 wt = assay: MTT cytotoxicity assay, HCT116p53 wt; assay type: cell-based; details: Homo sapiens
Text: as §3

MRCS = assay: MTT cytotoxicity assay, MRC5 fibroblasts; assay type: cell-based; details: Homo sapiens, Fibroblast, non-tumor fibroblasts
Text: as §3

A549 = assay: MTT cytotoxicity assay, A549; assay type: cell-based; details: Homo sapiens
Text: as §3

human 17βHSD1 [3] = target: T4, human 17βHSD1; assay: 17βHSD inhibition in MCF-7 cells transfected with human 17βHSD1, E1 in supernatant; assay type: cell-based; parameters: expressed in transfected cells; host or cells: MCF-7; details: 10 μmol·l^−1
Procedure: as §2

| SMILES | inhibition at 0.1 µM (human 17βHSD type 1) [%] | inhibition at 1 µM (human 17βHSD type 1) [%] | melting point [°C] | % of inhibition of human 17βHSD5 (human 17βHSD type 5) [%] | IC50 (human 17βHSD type 1) [nM] | further results |
| --- | --- | --- | --- | --- | --- | --- |
| C[C@]12CC[C@@H]3c4ccc(O)cc4CC[C@H]3[C@@H]1[C@H](CCc1c(F)c(F)c(F)c(F)c1F)CC2=O [Compound 17, 15β-(2,3,4,5,6-Pentafluorophenethyl)-3-hydroxy-estra-1,3,5(10)-trien-17-one] | 56 | 90 | 151 | 31. | – | – |
| C=C[C@@H]1CC(=O)[C@@]2(C)CC[C@@H]3c4ccc(O)cc4CC[C@H]3[C@H]12 [Compound 2a, 3-Hydroxy-15β-vinyl-estra-1,3,5(10)-trien-17-one] | 79 | 95 | 162 | 7 | 17 | estrogenic effect in words [1]: partial estrogenicity; isoenzyme selectivity in words (human 17βHSD type 1; among 17βHSD types 1, 2, 3, 4, 5, 7): inhibits exclusively the 17βHSD1 isoenzyme |
| C[C@]12CC[C@@H]3c4ccc(O)cc4CC[C@H]3[C@@H]1[C@H](CCc1ccc3ccccc3c1)CC2=O [Compound 8, 3-Hydroxy-15β-(2-(naphtalen-2-yl)ethyl)-estra-1,3,5(10)-trien-17-one] | 77 | 92 | 201 | 76 | 18 | – |
| COc1ccc(CC[C@@H]2CC(=O)[C@@]3(C)CC[C@@H]4c5ccc(O)cc5CC[C@H]4[C@H]23)cc1OC [Compound 11, 3-Hydroxy-15β-(3,4-dimethoxyphenethyl)-estra-1,3,5(10)-trien-17-one] | 36 | 67 | – | – | – | – |
| COc1cccc(CC[C@@H]2CC(=O)[C@@]3(C)CC[C@@H]4c5ccc(O)cc5CC[C@H]4[C@H]23)c1 [Compound 10, 3-Hydroxy-15β-(3-methoxyphenethyl)-estra-1,3,5(10)-trien-17-one] | 72 | 87 | 178 | – | – | – |
| C[C@]12CC[C@@H]3c4ccc(O)cc4CC[C@H]3[C@@H]1[C@H](CCc1ccc(C(F)(F)F)cc1)CC2=O [Compound 4, 15β-(4-(Trifluoromethyl)phenethyl)-3-hydroxy-estra-1,3,5(10)-trien-17-one] | 68 | 91 | 168 | 89 | 42 | ER antagonism in words [1]: ER antagonist |
| CC(C)(C)Oc1ccc(CC[C@@H]2CC(=O)[C@@]3(C)CC[C@@H]4c5ccc(O)cc5CC[C@H]4[C@H]23)cc1 [Compound 13, 15β-(4-t-Butoxyphenethyl)-3-hydroxy-estra-1,3,5(10)-trien-17-one] | 62 | 80 | – | – | – | – |
| C[C@]12CC[C@@H]3c4ccc(O)cc4CC[C@H]3[C@@H]1[C@H](CCc1cc(F)c(F)c(F)c1)CC2=O [Compound 16, 15β-(3,4,5-Trifluorophenethyl)-3-hydroxy-estra-1,3,5(10)-trien-17-one] | 67 | 95 | 182 | 79 | 36 | – |
| C[C@]12CC[C@@H]3c4ccc(O)cc4CC[C@H]3[C@@H]1[C@H](CCc1ccc(O)cc1)CC2=O [Compound 14, 15β-(4-Hydroxyphenethyl)-3-hydroxy-estra-1,3,5(10)-trien-17-one] | 72 | 97 | – | 42 | – | E1 in supernatant, CHO (human 17βHSD1 [2]; 8 hr.): 3179 pg/mL; E1 in supernatant, CHO (human 17βHSD1 [2]; 24 hr.): 1054 pg/mL; IC50 (HCT116p53-/-): 32.6 µM; IC50 (K562): 22.6 µM; IC50 (CEM-DNR-bulk): 30.8 µM; IC50 (U2OS): 44.6 µM; IC50 (BJ): ≥ 50 µM; IC50 (CEM): 25.8 µM; IC50 (K562-Tax): 18.9 µM; IC50 (HCT116p53 wt): 28.2 µM; IC50 (MRCS): 50 µM; IC50 (A549): 41.3 µM; E1 in supernatant, MCF-7 (human 17βHSD1 [3]; 8 hr.): 4298 pg/mL; E1 in supernatant, MCF-7 (human 17βHSD1 [3]; 24 hr.): 2626 pg/mL |
| C[C@]12CC[C@@H]3c4ccc(O)cc4CC[C@H]3[C@@H]1[C@H](CCc1ccccc1)CC2=O [Compound 3, 15β-Phenethyl-3-hydroxy-estra-1,3,5(10)-trien-17-one] | 66 | 83 | – | 60 | 50 | ER antagonism in words [1]: ER antagonist |

From patent US10759826B2, “15β-substituted estrone derivatives as selective inhibitors of 17β-hydroxysteroid-dehydrogenases, method of preparation and use thereof” (USTAV ORGANICKE CHEMIE A BIOCHEMIE AV CR, V.V.I., priority 2016, dated 2020)
